Results as given in patent US9187524B2, “Broad spectrum antibiotic arylomycin analogs” (The Scripps Research Institute, priority 2010, dated 2015).
Values after ≈ are worked out from the molar mass of the structure shown. Read-outs that look alike come from different tables or passages of the source.

Experiments:
[1] = tested on: lepB(P29S) S. aureus 8325; assay: microbe, parasite or virus in culture; format: cell-based, Staphylococcus aureus; settings: for MIC: Staphylococcus aureus
[2] = tested on: lepB(P84L) E. coli MG1655; assay: microbe, parasite or virus in culture; format: cell-based, Escherichia coli; settings: for MIC: Escherichia coli
[3] = tested on: lepB(P84L) P. aeruginosa PAO1; assay: microbe, parasite or virus in culture; format: cell-based, Pseudomonas aeruginosa; settings: for MIC: Pseudomonas aeruginosa
[4] = tested on: spsB(S29P) S. epidermidis RP62A; assay: microbe, parasite or virus in culture; format: cell-based, Staphylococcus epidermidis; settings: for MIC: Staphylococcus epidermidis
wild type S. aureus 8325 = assay: microbe, parasite or virus in culture; format: cell-based, Staphylococcus aureus; settings: for MIC: Staphylococcus aureus
[5] = tested on: wild type P. aeruginosa PAO1; assay: microbe, parasite or virus in culture; format: cell-based, Pseudomonas aeruginosa; settings: for MIC: Pseudomonas aeruginosa
R. opacus = assay: microbe, parasite or virus in culture; format: cell-based; settings: Rhodococcus opacus
S. pneumoniae = assay: microbe, parasite or virus in culture; format: cell-based, Streptococcus pneumoniae; settings: for MIC: Streptococcus pneumoniae
C. glutamicum = assay: microbe, parasite or virus in culture; format: cell-based, Corynebacterium glutamicum; settings: for MIC: Corynebacterium glutamicum
L. lactis = assay: microbe, parasite or virus in culture; format: cell-based, Lactococcus lactis
Helicobacter pylori = assay: microbe, parasite or virus in culture; format: cell-based
Chlamydia trachomatis = assay: microbe, parasite or virus in culture; format: cell-based
[6] = tested on: E. coli PAS0232 (SPase P84S); assay: microbe, parasite or virus in culture; format: cell-based; settings: Escherichia coli, read-out: MIC, E. coli PAS0232
[7] = tested on: P. aeruginosa PAS2006 (SPase P84S); assay: microbe, parasite or virus in culture; format: cell-based; settings: Pseudomonas aeruginosa, read-out: MIC, P. aeruginosa PAS2006
[8] = tested on: Staphylococcus aureus (different strains); format: cell-based; settings: Table 13; multiple values: different strains
Enterococcus faecalis = assay: microbe, parasite or virus in culture; format: cell-based; settings: Table 13
Klebsiella pneumoniae = assay: microbe, parasite or virus in culture; format: cell-based; settings: Table 13
Lactobacillus gasseri = assay: microbe, parasite or virus in culture; format: cell-based; settings: Table 13
Lactobacillus plantarum = assay: microbe, parasite or virus in culture; format: cell-based; settings: Lactiplantibacillus plantarum, Table 13
Clostridium bolteae = assay: microbe, parasite or virus in culture; format: cell-based; settings: Enterocloster bolteae, Table 13
Clostridium perfringens = assay: microbe, parasite or virus in culture; format: cell-based; settings: read-out: MIC, Clostridium perfringens
Bacteroides fragilis = assay: microbe, parasite or virus in culture; format: cell-based; settings: Table 13
Prevotella copris = assay: microbe, parasite or virus in culture; format: cell-based; settings: Table 13
S. aureus Rosenbach 328 = assay: microbe, parasite or virus in culture; format: cell-based; settings: Staphylococcus aureus; MRSA strain
[9] = tested on: E. coli strains harboring the indicated amino acid at SPase residue 84; assay: microbe, parasite or virus in culture; format: cell-based; settings: Escherichia coli
[10] = target: T1, truncated wild type E. coli SPase (Escherichia coli, UniProt P00803); assay: biochemical; format: binding
T1 construct: a truncated wild type E. coli SPase that lacks the N-terminal membrane helices; made in house; host or cells: E. coli BL21(DE3)

[11] = target: T2, full-length P84S E. coli SPase (Ser-variant) (Escherichia coli, UniProt P00803, P84S); assay: biochemical; format: binding
T2 construct: Full length His-tagged E. coli SPase proteins were expressed in BL21(DE3); His6; made in house; host or cells: E. coli BL21(DE3)

[12] = target: T3, full-length wild type S. aureus SPase (Pro-variant) (Staphylococcus aureus, UniProt P0A070); assay: biochemical; format: binding
T3 construct: Full length His-tagged S. aureus SPase proteins were expressed in and purified from BL21(DE3); His6 (N); made in house; host or cells: E. coli BL21(DE3)

[13] = target: T4, full-length P29S mutant S. aureus SPase (Ser-variant) (Staphylococcus aureus, UniProt P0A070, P29S); assay: biochemical; format: binding
T4 construct: Full length His-tagged S. aureus SPase proteins were expressed in and purified from BL21(DE3); His6 (N); made in house; host or cells: E. coli BL21(DE3)

[14] = tested on: E. coli and P. aeruginosa serine mutants; assay: MIC after permeabilizing with polymyxin B nonapeptide; format: cell-based
[15] = Table 2B, SPase without resistance-conferring Pro
[16] = Table 2B, SPase with resistance-conferring Pro

CCCCCCCCCCCCCCCC(=O)N(C)[C@H](CO)C(=O)N[C@H](C)C(=O)NCC(=O)N(C)[C@@H]1C(=O)N[C@@H](C)C(=O)N[C@H](C(=O)O)Cc2ccc(O)c(c2)-c2cc1ccc2O [Arylomycin C16]
MIC ([1]; read-out: MIC, S. aureus P29S): 8 mg/L (≈ 9.08 µM) | MIC ([1]; read-out: MIC, S. aureus PAS8001): 2 mg/L (≈ 2.27 µM) | MIC ([1]; read-out: MIC, Sensitive Sa): 2 mg/L (≈ 2.27 µM) | MIC, Sensitive Sa [1, 15]: 2 mg/L (≈ 2.27 µM) | MIC ([2]; MG1655, read-out: MIC, E. coli P84L): 2 mg/L (≈ 2.27 µM) | MIC ([2]; MG1655, read-out: MIC, Sensitive Ec): 0.5 mg/L (≈ 0.567 µM) | MIC, Sensitive Ec [2, 15]: 0.5 mg/L (≈ 0.567 µM) | MIC ([3]; PAO1, read-out: MIC, P. aeruginosa P84L): 4 mg/L (≈ 4.54 µM) | MIC ([3]; PAO1, read-out: MIC, Sensitive Pa): 8 mg/L (≈ 9.08 µM) | MIC, Sensitive Pa [3, 15]: 8 mg/L (≈ 9.08 µM) | MIC ([4]; read-out: MIC, Resistant Se): 8 mg/L (≈ 9.08 µM) | MIC ([4]; read-out: MIC, S. epidermidis PAS9001): 8 mg/L (≈ 9.08 µM) | MIC ([4]; read-out: MIC, resistant S. epidermidis): 8 mg/L (≈ 9.08 µM) | MIC, Resistant Se [4, 16]: 8 mg/L (≈ 9.08 µM) | fold elevated MIC compared to the wild type strain, Ser to Pro at position 29 ([4]; ~75% of selected S. epidermidis mutants): 32 fold | MIC (wild type S. aureus 8325; read-out: MIC, Resistant Sa): > 64 mg/L | MIC (wild type S. aureus 8325; Table 11, […], read-out: MIC, S. aureus NTCT 8325): > 128 mg/L | MIC, Resistant Sa (wild type S. aureus 8325; [16]): >64 mg/L | MIC ([5]; PAO1, read-out: MIC, Resistant Pa): > 64 mg/L | MIC ([5]; PAO1, Table 11, […], read-out: MIC, P. aeruginosa PAO1): > 128 mg/L | MIC ([5]; PAO1, Table 13, […], read-out: MIC, Pseudomonas aeruginosa): > 128 mg/L | MIC, Resistant Pa [5, 16]: >64 mg/L | MIC (R. opacus; Table 4, read-out: MIC, R. opacus): 1 mg/L (≈ 1.13 µM) | MIC (R. opacus; Table 13, […], read-out: MIC, Rhodococcus opacus): 2 mg/L (≈ 2.27 µM) | MIC (S. pneumoniae; Table 4, read-out: MIC, S. pneumoniae): 8 mg/L (≈ 9.08 µM) | MIC (S. pneumoniae; Table 13, […], read-out: MIC, Streptococcus pneumoniae): 16 mg/L (≈ 18.2 µM) | MIC, S. pneumoniae (S. pneumoniae; Table 14): 8 mg/L (≈ 9.08 µM) | MIC (C. glutamicum; Table 4, read-out: MIC, C. glutamicum): 2 mg/L (≈ 2.27 µM) | MIC (C. glutamicum; text b755, read-out: MIC, Corynebacterium glutamicum): 2 mg/L (≈ 2.27 µM) | MIC, Corynebacterium glutamicum (C. glutamicum; Table 13, […]): 2 mg/L (≈ 2.27 µM) | MIC (L. lactis; Lactococcus lactis, Table 4): 16 mg/L (≈ 18.2 µM) | MIC, Lactococcus lactis (L. lactis; Table 13, multiple values: different strains): 16 mg/L (≈ 18.2 µM) | sensitivity of Lactococcus lactis spp. cremonis (L. lactis; one SPase with Leu29): sensitive | sensitivity of Lactococcus lactis spp. lactii (L. lactis; single SPase with Leu29): resistant | MIC (Helicobacter pylori; Table 13, […], read-out: MIC, Helicobacter pylori): 4 mg/L (≈ 4.54 µM) | MIC (Helicobacter pylori; read-out: MIC, H. pylori): 4 mg/L (≈ 4.54 µM) | MIC (Chlamydia trachomatis; Table 13, […], read-out: MIC, Chlamydia trachomatis): 6 mg/L (≈ 6.81 µM) | MIC (Chlamydia trachomatis; eradicated from human HeLa 229 cells, read-out: MIC, C. trachomatis): 6 mg/L (≈ 6.81 µM) | MIC [6]: 2 mg/L (≈ 2.27 µM) | MIC [7]: 8 mg/L (≈ 9.08 µM) | MIC, Staphylococcus aureus [8]: 16 to 32 mg/L | MIC (Enterococcus faecalis): > 64 mg/L | MIC (Klebsiella pneumoniae): > 128 mg/L | MIC (Lactobacillus gasseri): > 128 mg/L | MIC (Lactobacillus plantarum): > 128 mg/L | MIC (Clostridium bolteae): > 16 mg/L | MIC (Clostridium perfringens): > 16 mg/L | MIC (Bacteroides fragilis): > 16 mg/L | MIC (Prevotella copris): > 16 mg/L | MIC (S. aureus Rosenbach 328): 25 mg/L (≈ 28.4 µM) | MIC ([9]; read-out: MIC, E. coli SPase residue 84 His variant): 4 mg/L (≈ 4.54 µM) | MIC ([9]; read-out: MIC, E. coli SPase residue 84 Phe or His variant): 2 mg/L (≈ 2.27 µM) | MIC ([9]; read-out: MIC, E. coli with Pro at SPase residue 84): > 256 mg/L | MIC ([9]; read-out: MIC, E. coli with any other amino acid at SPase residue 84): ≤ 16 mg/L | Kd [10]: 0.979 ± 0.069 µM | Kd [11]: 0.0057 ± 0.001 µM | Kd [12]: 1.28 ± 0.278 µM | Kd [13]: 0.13 ± 0.053 µM | decrease of MIC on permeabilizing with polymyxin B nonapeptide [14]: ≤ 4 fold
